Values quoted from earlier work, collected in paper PMC10239758 (European journal of medicinal chemistry, 2023).
Converted amounts (≈) assume the structure as drawn.

Test system: Mtb strain H37Rv
Settings: cited from earlier work

Cc1cc(C)c2cc(C(=O)NC3CCCCCC3)[nH]c2c1 [Compound 6]
MIC H37Rv: 3.9 ng/mL (≈ 0.0137 µM)
